The values that follow come from patent US9340500B2, “Aromatic heterocyclic derivative having TRPV4-inhibiting activity” (SHIONOGI & CO., LTD., priority 2011, dated 2016).

The nature of one data set: Solubility test. As to conditions: artificial intestinal juice (phosphate buffer) with 1% DMSO, fassgf or other biorelevant, kinetic from dmso stock, artificial intestinal juice pH 6.8, 16 hours at 25° C. It is filed as physicochemical. The procedure:
The solubility of each compound is determined under 1% DMSO addition conditions. A 10 mmol/L solution of the compound is prepared with DMSO, and 6 μL of the compound solution is added to 594 μL of an artificial intestinal juice (water and 118 mL of 0.2 mol/L NaOH reagent are added to 250 mL of 0.2 mol/L potassium dihydrogen phosphate reagent to reach 1000 mL) with a pH of 6.8. The mixture is left standing for 16 hours at 25° C., and the mixture is vacuum-filtered. The filtrate is two-fold diluted with methanol/water=1/1, and the compound concentration in the filtrate is measured with HPLC or LC/MS/MS by the absolute calibration method.

Data set [1] concerns the target T1, human TRPV4 (Homo sapiens (Human), UniProt Q9HBA0). Briefly: Test Example 3: measurement of TRPV4 inhibitory activity (Fluo-3, FDSS 3000, 4α-PDD). As to conditions: hTRPV4/CHO cells, calculated from IC50 and 4α-PDD EC50. The data set is classed as cell-based. The procedure, abridged: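 Fluo-3-loaded CHO-K1 cells stably expressing TRPV4 in HEPES/probenecid Hanks buffer pH 7.4; compound added, then 4α-PDD, Ca2+ fluorescence (Ex 480/Em 540 nm) read 8 min. Max-Min normalized to 10 μM Ruthenium Red (100%) and vehicle; IC50 from 10-point 3-fold series converted to Ki using 4α-PDD EC50 and concentration.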

A short description of data set [2]: Metabolism stability test. As to conditions: human liver microsomes, 30 minutes. The data set is classed as in vitro ADME. The method, then: Using a commercially available pooled human hepatic microsomes, a test compound was reacted for a constant time, a remaining rate was calculated by comparing a reacted sample and an unreacted sample, thereby, a degree of metabolism in liver was assessed.
A reaction was performed (oxidative reaction) at 37° C. for 0 minute or 30 minutes in the presence of 1 mmol/L NADPH in 0.2 mL of a buffer (50 mmol/L Tris-HCl pH 7.4, 150 mmol/L potassium chloride, 10 mmol/L magnesium chloride) containing 0.5 mg protein/mL of human liver microsomes. After the reaction, 50 μL of the reaction mixture was added to 100 μL of a methanol/acetonitrile=1/1 (v/v), mixed and centrifuged at 3000 rpm for 15 minutes. The test compound in the supernatant was quantified by LC/MS/MS, and a remaining amount of the test compound after the reaction was calculated, letting a compound amount at 0 minute reaction time to be 100%. Hydrolysis reaction was performed in the absence of NADPH and glucuronidation reaction was in the presence of 5 mM UDP-glucuronic acid in place of NADPH, followed by similar operations.

Data set [3] in a line: BA test (oral absorbability). It is filed as in vivo. As to conditions: plasma; Mouse, oral administration 1 mg/kg. The method, then:
An experimental material and a method for examining oral absorbability
(1) Animals used rats or mice were used.
(2) Breeding condition: chow and sterilized tap water were allowed to be taken in freely.
(3) Setting of a dosage and grouping: a predetermined dosage was administered orally or intravenously. Groups were formed as shown below. (A dosage varied depending on each compound) Oral administration 1-30 mg/kg (n=2 to 3) Intravenous administration 0.5-10 mg/kg (n=2 to 3) (4) Preparation of administered liquid: In oral administration, a solution or suspension was administered. In intravenous administration, after solubilization, the administration was performed. (5) Method of Administration: In oral administration, compulsory administration to the stomach was conducted using an oral probe.
In intravenous administration, administration from the caudal vein was conducted using a syringe with an injection needle.
(6) Evaluation item: Blood was chronologically collected, and then the drug concentration in blood plasma was measured using a LC/MS/MS.
(7) Statistical analysis: With regard to a shift in plasma concentration, the plasma concentration-time area under the curve (AUC) was calculated using a nonlinear least-squares program WinNonlin®. Bioavailability (BA) was calculated from the AUCs of the oral administration group and the intravenous administration group, respectively. […]

For data set [4], the target named is T1, human TRPV4. The experiment in a line: Test Example 2: measurement of TRPV4 inhibitory activity (Fluo 3-AM, FLIPR, 4α-PDD 600 nmol/L). It is filed as cell-based. The note with it: hTRPV4/CHO cells.
Method: For each compound, TRPV4 inhibitory activity was measured using cells.
(1) The TRPV4 inhibitory activity was measured using CHO-K1 cells stably expressing human TRPV4 (hTRPV4/CHO cells).
(2) In the day before the experimental day, frozen cell were thawed and washed with the culture medium (MEM-α, 10% FBS, 4 mmol/L L-Glutamine, 50 unit Penicillin, 50 μg/mL Streptomycin). Then cells were suspended in the culture medium.
(3) The 384-well plates which hTRPV4/CHO cells were seeded at densities of 4000 cells/well in the culture medium and cultured in a CO2 incubator in the presence of 5% CO2 at 37° C. for overnight was used as assay plates. […]
(7) Diluted compound solution was dispensed to each well in the compound plate, and mixed with built-in Pipette and Mixer of the Fluorescence analysis system FLIPR 384 (Molecular devices). […]
(9) The fluorescent intensity was measured with FLIPR TETRA system for 7 min from the point of time addition the compound solution, at Ex 488 nm, Em 510-570 nm wavelength.
TRPV4 inhibitory activity (IC50 value) of a compound was evaluated according to the following procedure.
(10) In the presence of the compound, the difference between maximal and minimal of fluorescent intensity value for 3 min from just before addition of 4α-PDD solution was calculated, and it was referred as Max-Min value. […]
Data set [5] concerns the target T1, human TRPV4. The experiment in a line: Test Example 1: measurement of TRPV4 inhibitory activity (Fluo 4-AM, FLIPR TETRA, 4α-PDD 1 μmol/L). It is filed as cell-based. As to conditions: hTRPV4/CHO cells, 4α-PDD 1 μmol/L. The procedure, abridged:
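CHO-K1 cells stably expressing human TRPV4, Fluo-4-loaded, pre-incubated 5 min with compound (10 points, 3-fold, 10 μmol/L to 0.5 nmol/L) before 1 μmol/L 4α-PDD; FLIPR max-min fluorescence over 5 min, normalised to 20 μM Ruthenium Red. IC50 by logistic fit; Ki from IC50 using 4α-PDD EC50.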

Data set [6] addresses human ether-a-go-go related gene (hERG) channel (Homo sapiens (Human), UniProt Q12809). The experiment in a line: hERG test (whole cell patch clamp, IKr). It is filed as cell-based. The note with it: 1 μmol/L of test compound, HEK293 cells expressing hERG. An excerpt: For the purpose of assessing risk of an electrocardiogram QT interval prolongation, effects on delayed rectifier K^+ current (IKr), which plays an important role in the ventricular repolarization process, was studied using HEK293 cells expressing human ether-a-go-go related gene (hERG) channel.
After a cell was retained at a membrane potential of −80 mV by whole cell patch clamp method using an automated patch clamp system (PatchXpress 7000A, Axon Instruments Inc.), IKr induced by depolarization pulse stimulation at +40 mV for 2 seconds and, further, repolarization pulse stimulation at −50 mV for 2 seconds was recorded. […] From the recording IKr, an absolute value of the tail peak current was measured based on the current value at the resting membrane potential using an analysis software (DataXpress ver. 1, Molecular Devices Corporation). Further, the % inhibition relative to the tail peak current before application of the test substance was calculated, and compared with the vehicle-applied group (0.1% dimethyl sulfoxide solution) to assess influence of the test substance on IKr.
Background: The hERG channel carries a current that helps repolarise heart muscle cells.

Where [7] appears, read: compound concentration 2 μmol/L.
The mark [8] stands for this setting: compound concentration 0.5 μmol/L.

T1 sequence (Q9HBA0 whole entry): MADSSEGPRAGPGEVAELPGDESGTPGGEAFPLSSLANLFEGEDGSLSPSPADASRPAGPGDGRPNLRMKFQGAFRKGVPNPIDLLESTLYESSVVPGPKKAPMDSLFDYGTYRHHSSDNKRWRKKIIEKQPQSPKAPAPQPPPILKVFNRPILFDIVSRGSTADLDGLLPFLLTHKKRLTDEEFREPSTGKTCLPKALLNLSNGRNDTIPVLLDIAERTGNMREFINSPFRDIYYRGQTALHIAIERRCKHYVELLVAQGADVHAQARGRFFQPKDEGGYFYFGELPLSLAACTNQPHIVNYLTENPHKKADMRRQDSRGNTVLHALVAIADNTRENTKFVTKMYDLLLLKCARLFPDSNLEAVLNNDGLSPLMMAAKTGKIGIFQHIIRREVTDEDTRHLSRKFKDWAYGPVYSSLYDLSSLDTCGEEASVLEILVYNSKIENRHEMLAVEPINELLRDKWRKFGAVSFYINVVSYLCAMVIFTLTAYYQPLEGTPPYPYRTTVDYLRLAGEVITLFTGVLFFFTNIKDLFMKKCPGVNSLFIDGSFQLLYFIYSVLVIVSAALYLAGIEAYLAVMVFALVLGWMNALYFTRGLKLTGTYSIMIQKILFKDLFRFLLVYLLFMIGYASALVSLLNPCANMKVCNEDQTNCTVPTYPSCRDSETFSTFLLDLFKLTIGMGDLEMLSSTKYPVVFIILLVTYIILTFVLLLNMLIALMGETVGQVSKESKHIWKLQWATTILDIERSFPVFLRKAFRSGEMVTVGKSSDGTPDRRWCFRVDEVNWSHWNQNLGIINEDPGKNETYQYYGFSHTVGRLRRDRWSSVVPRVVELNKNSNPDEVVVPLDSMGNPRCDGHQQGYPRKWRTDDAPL
Chain of human ether-a-go-go related gene (hERG) channel (Q12809 whole entry): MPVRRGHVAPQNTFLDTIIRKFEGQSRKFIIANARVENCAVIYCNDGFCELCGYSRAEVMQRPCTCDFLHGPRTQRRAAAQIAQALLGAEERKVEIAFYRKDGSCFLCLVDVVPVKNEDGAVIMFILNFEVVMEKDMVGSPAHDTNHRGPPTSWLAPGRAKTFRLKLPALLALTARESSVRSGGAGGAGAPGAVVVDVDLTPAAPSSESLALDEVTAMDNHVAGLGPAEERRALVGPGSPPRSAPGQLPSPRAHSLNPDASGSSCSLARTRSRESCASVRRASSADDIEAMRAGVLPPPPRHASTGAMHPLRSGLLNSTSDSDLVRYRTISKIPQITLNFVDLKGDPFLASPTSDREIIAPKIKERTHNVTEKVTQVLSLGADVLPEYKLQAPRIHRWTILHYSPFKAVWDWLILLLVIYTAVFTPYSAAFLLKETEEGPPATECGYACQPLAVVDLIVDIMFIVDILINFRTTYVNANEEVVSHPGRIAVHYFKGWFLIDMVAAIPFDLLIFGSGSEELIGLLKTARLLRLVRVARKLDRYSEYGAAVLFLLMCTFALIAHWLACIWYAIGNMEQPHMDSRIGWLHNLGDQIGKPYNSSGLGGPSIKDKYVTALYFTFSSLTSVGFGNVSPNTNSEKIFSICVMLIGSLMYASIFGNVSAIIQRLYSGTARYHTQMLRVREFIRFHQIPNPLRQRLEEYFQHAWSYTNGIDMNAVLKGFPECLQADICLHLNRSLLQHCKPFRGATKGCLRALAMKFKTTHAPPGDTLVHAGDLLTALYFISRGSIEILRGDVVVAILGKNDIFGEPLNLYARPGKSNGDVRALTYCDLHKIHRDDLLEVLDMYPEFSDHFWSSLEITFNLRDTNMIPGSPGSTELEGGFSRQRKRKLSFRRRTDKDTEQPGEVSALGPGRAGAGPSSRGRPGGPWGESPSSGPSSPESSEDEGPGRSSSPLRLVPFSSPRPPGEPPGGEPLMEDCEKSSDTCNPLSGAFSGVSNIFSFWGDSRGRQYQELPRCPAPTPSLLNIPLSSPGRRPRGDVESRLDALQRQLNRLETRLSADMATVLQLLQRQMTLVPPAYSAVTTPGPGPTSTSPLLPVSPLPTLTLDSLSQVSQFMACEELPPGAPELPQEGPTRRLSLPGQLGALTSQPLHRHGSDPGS

As to `Cc1c(C(=O)Nc2cnccn2)cc(-c2ccccc2)n1CCCN1CCOCC1` [Compound I-003], in “Solubility test”, the solubility at 16 h is over 50 µM. The Ki at human TRPV4 [1] was 3070 nM. The “remaining rate (metabolism stability)” value in data set [2] (setting [7]) turned out to be 71.4%.

On to `Cc1c(C(=O)Nc2cccc(C(F)(F)F)c2)cc(-c2ccccc2)n1CCCN1CCNCC1` [Compound I-014], for which, in “Solubility test”, the solubility at 16 h was over 50 µM. The bioavailability in data set [3] was 15.2%. Moreover, the Ki at human TRPV4 [1] is 355 nM. Further, in data set [2] (setting [7]), the “remaining rate (metabolism stability)” value was 66.3%.

For the compound `Cc1c(C(=O)Nc2cccc(C(F)(F)F)c2)cc(-c2ccccc2)n1CCSCc1c(F)cccc1Cl` [Compound I-084], the IC50 against human TRPV4 [4] is 1600 nM; on human TRPV4 [5], 1200 nM.

Compound `CNCCCn1c(-c2ccccc2)cc(C(=O)Nc2cccc(C(F)(F)F)c2)c1C` [Compound I-031] showed a solubility at 16 h in the data set “Solubility test” of over 50 µM. Further, the bioavailability in data set [3] is 24.4%. For the same compound, the Ki at human TRPV4 [1] was 160 nM. For the same compound, in data set [2] (setting [8]), the “remaining rate (metabolism stability)” value is 92.2%.

`Cc1c(C(=O)Nc2cccc(C(F)(F)F)c2)cc(-c2ccccc2)n1CCCN(C)CC[C@H](O)[C@H](O)CO` [Compound I-035] showed a solubility at 16 h in the data set “Solubility test” of over 50 µM. Moreover, at human TRPV4 [1], the Ki was 771 nM. For the same compound, the “remaining rate (metabolism stability)” value in data set [2] (setting [8]) was 82.2%.

`Cc1c(C(=O)Nc2nccs2)cc(-c2ccccc2)n1CCCN1CCOCC1` [Compound I-019] gave a solubility at 16 h in the data set “Solubility test” of over 50 µM. Besides, the Ki at human TRPV4 [1] was 1500 nM. Further, the “remaining rate (metabolism stability)” value in data set [2] (setting [7]) amounted to 89.1%.

In the data set “Solubility test”, `Cc1c(NC(=O)c2cccc(C(F)(F)F)c2)cc(-c2ccccc2)n1CCCN1CCOCC1` [Compound I-082] gave a solubility at 16 h of over 50 µM. Moreover, the Ki on human TRPV4 [1] is 1440 nM. In data set [6], this compound returned a hERG % inhibition of 13.5%.

As usually defined, the solubility is how much of the substance goes into solution per volume. What is called Ki is the equilibrium dissociation constant of an inhibitor or competing ligand from its target. The bioavailability is the share of a dose that reaches the circulation, judged against a reference dose that is usually intravenous. Read a high bioavailability as good availability. Usually IC50 stands for the concentration that inhibits the measured activity by half. A lower IC50 goes with greater potency.
